{"source": "patent US20110229521A1", "about": "“NUTRITIONAL SUPPORT OF THE IMMUNE SYSTEM DURING ANTI-CANCER TREATMENT” (priority 2008, published 2011)", "key": {"[1]": {"test": "Body weight, haematological evaluation and flow cytometry of tumor-bearing mice on supplemented diets with chemotherapy (Example 2)", "type": "in vivo, C57BL/6 (H-2b) mice", "details": "for Global lymphocyte population: following chemotherapy", "protocol": "(§1) Mice. […] The animals were distributed into 7 different group diets. There was a control group that received the diet AIN 93 for adult rodents (maintenance). […] Control animals without chemotherapeutic treatment were run in parallel for all tested diets. Body weight was assessed every two days. Blood samples were obtained at day 2, 4 and 10 after the chemo-treatment and at sacrifice (14 or 28 days). An autopsy was performed and tumor mass was assessed.\nHaematological evaluation.\nFlow cytometric analysis."}, "MCA-OVA tumor cells": {"test_system": "MCA-OVA tumor cells", "test": "Tumor growth evaluation by caliper, supplemented diets with or without chemotherapy (Example 2)", "type": "in vivo, C57BL/6 (H-2b) mice", "protocol": "as §1\n(§2) Cancer Cell Lines. Methylcholanthrene (MCA) induced sarcoma cell line expressing the exogenous antigen ovalbumin (OVA) was grown in DMEM or RPMI 1640 supplemented with 2 mM L-glutamine, 10 mM HEPES, 20 μM 2-mercaptoethanol, 150 U/mL streptomycin, 200 U/mL penicillin, and 10% heat-inactivated FBS. 1×10 ^6 tumor cells were injected in the flank of the mice 6 days prior to the chemotherapy.\nTumor growth evaluation. Growth of tumors was monitored every 2 d by using calipers, and tumor volume was calculated by using the formula length×width×width×0.52 mm^3."}, "[2]": {"test": "Body weight, haematological evaluation and flow cytometry of tumor-bearing mice after chemotherapy (Example 1)", "procedure": "Mice. Inbred eight-week-old C57BL/6 (H-2b) mice were used in the experiments. Mice were inoculated subcutaneously (s.c.) on the left flank with 1×10 ^6 tumor cells, and tumor growth was monitored every 2 days by caliper measurement. 6 days after the tumor inoculation the animals were treated either with oxaliplatin or doxorubicin. Tumor growth was monitored every two days after the chemotherapeutic treatment and they were sacrificed after two weeks of tumor implantation. Some experiments were carried out until 28 days post-chemo to better assess tumor growth.\nBody weight was assessed every two days until sacrifice.\nBlood samples were obtained at day 2 and 4 after the chemo-treatment, at day 10 and at sacrifice (14 or 28 days). An autopsy was performed and tumoral mass was assessed.\nHaematological evaluation. Red blood cell enumeration, hemoglobin and hematocrit were measured at 2, 4, 10, 14 and 28 days.\nWhite blood cell counts and differential leukocyte formulation were examined at the same time points. Blood samples were used in addition to determine immune cell populations.\nFlow cytometric analysis. Cell subset analysis of the CD11c^+, CD11b^+Gr-1^+ and CD11b^+Gr-1^−, CD14^+, CD19^+, CD16^+, CD56^+, CD3^+, CD8^+, CD4^+ was performed. The battery of antibodies used permitted the evaluation of: B and T cell subsets NK, NKT cells, macrophages, dendritic cells, granulocytes."}, "[3]": {"test_system": "Methylcholanthrene (MCA) induced sarcoma cell line expressing the exogenous antigen for ovalbumin (OVA)", "test": "Tumor growth evaluation by caliper after chemotherapy (Example 1)", "type": "in vivo, C57BL/6 (H-2b) mice", "protocol": "as §2, with “antigen for” for “antigen”, “were” for “was”, “1×10^6” for “1×10 ^6”\nGrowth of tumors was monitored every 2 d by using calipers, and tumor volume was calculated by using the formula length×width×width×0.52 mm^3."}, "γδ T cells": {"test_system": "γδ T cells", "details": "acid hydrolysed, diluted in media; peripheral blood mononuclear cells; cited from earlier work"}}, "data": [{"smiles": "N=C(N)NCCC[C@H](N)C(=O)O", "note": "[arginine, L-arginine]", "values": [{"measurement": "loss of CD3+ cells", "setting": "[1]; after chemotherapy, supplemented diet", "result": "partially modulated"}, {"measurement": "immune cell population / concentration", "setting": "[1]; second phase (tumor-induced toxicity)", "result": "increase immune cell concentration"}, {"measurement": "fall of erythrocytes after chemotherapy", "setting": "[1]; supplemented diet, days 6 to 10 post-chemo, FIG. 3", "result": "prevented the marked fall of erythrocytes"}, {"measurement": "tumor size", "setting": "MCA-OVA tumor cells; combination with the chemotherapy treatment versus chemotherapy alone, FIG. 4", "result": "further reduced the tumor size"}, {"measurement": "progression of the implanted tumor", "setting": "MCA-OVA tumor cells; supplemented diet compared to other groups", "result": "delayed progression"}]}, {"smiles": "NC(=O)NCCC[C@H](N)C(=O)O", "note": "[citrulline, L-citrulline]", "values": [{"measurement": "Global lymphocyte population", "setting": "[1]; supplemented diet", "result": "less depressed following chemotherapy"}]}, {"smiles": "O=C1[O][Pt]2([NH][C@@H]3CCCC[C@H]3[NH]2)[O]C1=O", "note": "[oxaliplatin]", "values": [{"measurement": "white blood cell counts", "setting": "[2]", "result": "higher that the baseline counts"}, {"measurement": "tumor growth rate versus control (no chemotherapy)", "setting": "[3]; treatment group oxa-10, FIG. 2, divergence at day 14", "result": "slower rate than the control"}, {"measurement": "tumor growth rate versus control (no chemotherapy)", "setting": "[3]; treatment group oxa-12.5, FIG. 2, divergence at day 14", "result": "slower rate than the control"}]}, {"smiles": "CCNC(=O)CC[C@H](N)C(=O)O", "note": "[L-theanine]", "values": [{"measurement": "expansion of γδ T cells", "setting": "γδ T cells", "result": 15, "unit": "fold"}]}, {"smiles": "NC(=O)CC[C@H](N)C(=O)O", "note": "[glutamine]", "values": [{"measurement": "Global lymphocyte population", "setting": "[1]; supplemented diet", "result": "less depressed following chemotherapy"}]}]}
